Data as given in patent US20250154169A1, “COMPOUNDS AND METHODS FOR MODULATING SPLICING” (REMIX THERAPEUTICS INC., priority 2021, published 2025).
Where two headings read alike, the source gives them in different places.

Assays:
Type in all cases: cell-based, human
[1] = tested on: HTT mRNA; assay: Splicing RT-qPCR assay, HTT canonical (CJ) and alternative (AJ) junction mRNA
Method in brief: (§1)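 Canonical (CJ) and alternative-exon (AJ) junction mRNAs quantified by one-step RT-qPCR in cell lysates, normalized to housekeeping PPIA for A673 and GAPDH or GUSB for K562. Cells were exposed 24 h at 37 °C to 11-point 3-fold compound series from 10 uM final, with DMSO at or below 0.25%.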

[2] = tested on: MYB mRNA; assay: Splicing RT-qPCR assay, MYB canonical (CJ) and alternative (AJ) junction mRNA
Method in brief: as §1

[3] = tested on: Target C mRNA; assay: Splicing RT-qPCR gene panel, Target C canonical junction (CJ) mRNA; settings: Homo sapiens, Tables 4A/4B, read-out: Target C (IC50, decrease in CJ mRNA, gene panel)
Method in brief: (§2)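 A673/K562, 24 h cpd, 11-pt 3-fold from 10 uM, DMSO ≤0.25%. Lysis, direct RT-qPCR of CJ isoform, ≥duplicate. GAPDH/GUSB/PPIA norm, ΔΔCt vs DMSO → RQ → % response.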

[4] = tested on: HTT mRNA; assay: Splicing RT-qPCR gene panel, HTT canonical junction (CJ) mRNA; settings: Homo sapiens, Tables 4A/4B, read-out: HTT (IC50, decrease in CJ mRNA, gene panel)
Method in brief: as §2

[5] = tested on: SMN2 mRNA; assay: Splicing RT-qPCR gene panel, SMN2 canonical junction (CJ) mRNA; settings: Homo sapiens, Tables 4A/4B, read-out: SMN2 (IC50, decrease in CJ mRNA, gene panel)
Method in brief: as §2

[6] = Homo sapiens, 24 h, A673 or K562 cells, 24 hours compound treatment, read-out: HTT CJ (IC50, decrease in canonical junction mRNA)
[7] = Homo sapiens, A673 or K562 cells, 24 hours compound treatment, read-out: HTT AJ (AC50, increase in alternative junction mRNA)
[8] = Homo sapiens, 24 h, A673 or K562 cells, 24 hours compound treatment, RT-qPCR, read-out: MYB AJ (AC50, increase in alternative junction mRNA)
[9] = Homo sapiens, 24 h, A673 or K562 cells, 24 hours compound treatment, RT-qPCR, read-out: MYB CJ (IC50, decrease in canonical junction mRNA)
[10] = Homo sapiens, Tables 4A/4B, canonical junction qPCR panel, read-out: MYB (IC50, decrease in CJ mRNA, gene panel)
[11] = Homo sapiens, Table 3B, alternative junction mRNA, read-out: HTT AJ (AC50, increase in AJ mRNA)
[12] = Homo sapiens, Table 3B, canonical junction mRNA, read-out: HTT CJ (IC50, decrease in CJ mRNA)
[13] = Homo sapiens, Table 3B, canonical junction mRNA, RT-qPCR, read-out: MYB CJ (IC50, decrease in CJ mRNA)
[14] = Homo sapiens, Table 3B, alternative junction mRNA, RT-qPCR, read-out: MYB AJ (AC50, increase in AJ mRNA)

IC50 [1, 6] [nM]	IC50 [2, 9] [nM]	IC50 [2, 10] [nM]	IC50 [3] [nM]	IC50 [4] [nM]	IC50 [5] [nM]	IC50 [1, 12] [nM]	IC50 [2, 13] [nM]	IC50 ([1]; A673 or K562 cells, 24 hours compound treatment, read-out: HTT CJ (IC50, decrease in canonical junction mRNA)) [nM]	IC50 ([2]; A673 or K562 cells, 24 hours compound treatment, RT-qPCR, read-out: MYB CJ (IC50, decrease in canonical junction mRNA)) [nM]	SMILES	AC50 [1, 7] [nM]	AC50 [2, 8] [nM]	AC50 [1, 11] [nM]	AC50 [2, 14] [nM]	AC50 ([1]; A673 or K562 cells, 24 hours compound treatment, read-out: HTT AJ (AC50, increase in alternative junction mRNA)) [nM]	AC50 ([2]; A673 or K562 cells, 24 hours compound treatment, RT-qPCR, read-out: MYB AJ (AC50, increase in alternative junction mRNA)) [nM]
> 10000	100 to 1000	100 to 1000	> 10000	> 10000	< 100	–	–	–	–	CCn1cc2c(N3CC[C@@H](N(C)C)C3)ccc(C(=O)Nc3cc(F)c4nc(C)cn4c3)c2n1 [Compound 407, (R)-4-(3-(dimethylamino)pyrrolidin-1-yl)-2-ethyl-N-(8-fluoro-2-methylimidazo[1,2-a]pyridin-6-yl)-2H-indazole-7-carboxamide]	> 10000	100 to 1000	–	–	–	–
1000 to 10000	< 100	< 100	1000 to 10000	1000 to 10000	< 100	–	–	–	–	CCNC1CCN(c2ccc(C(=O)Nc3cc(F)c4nc(C)cn4c3)c3nn(CC)cc23)CC1 [Compound 380, 2-ethyl-4-[4-(ethylamino)piperidin-1-yl]-N-{8-fluoro-2-methylimidazo[1,2-a]pyridin-6-yl}indazole-7-carboxamide]	1000 to 10000	< 100	–	–	–	–
> 10000	< 100	< 100	> 10000	> 10000	< 100	–	–	–	–	Cc1cn2cc(NC(=O)c3ccc(N4CCC(NC5CC5)C4)c4cn(C)nc34)cc(F)c2n1 (centres unmarked) [Compound 296, 4-[3-(cyclopropylamino)pyrrolidin-1-yl]-N-{8-fluoro-2-methylimidazo[1,2-a]pyridin-6-yl}-2-methylindazole-7-carboxamide]	> 10000	< 100	–	–	–	–
–	–	< 100	100 to 1000	< 100	< 100	< 100	< 100	–	–	CCNC1CCN(c2ccc(C(=O)Nc3cc(F)c4nc(C)cn4c3)n3nc(CO)cc23)C1 (centres unmarked) [Compound 956]	–	–	100 to 1000	< 100	–	–
–	–	< 100	> 10000	100 to 1000	< 100	100 to 1000	< 100	–	–	Cc1cn2cc(NC(=O)c3ccc(N4CC[C@@H](NC5CC5)C4)c4nc(C)nn34)cc(F)c2n1 [Compound 958]	–	–	1000 to 10000	< 100	–	–
–	–	> 10000	> 10000	> 10000	> 10000	–	–	> 10000	> 10000	CCn1cc2c(N3CC[C@@H](NC)C3)ccc(C(=O)Nc3cc(F)c4nc(C)cn4c3)c2n1 [Compound 469, (R)-2-ethyl-N-(8-fluoro-2-methylimidazo[1,2-a]pyridin-6-yl)-4-(3-(methylamino)pyrrolidin-1-yl)-2H-indazole-7-carboxamide]	–	–	–	–	> 10000	> 10000
1000 to 10000	< 100	< 100	> 10000	1000 to 10000	< 100	–	–	–	–	Cc1cn2cc(NC(=O)c3ccc(N4CC[C@H](N)C4)c4cn(C)nc34)cc(F)c2n1 [Compound 382, 4-[(3S)-3-aminopyrrolidin-1-yl]-N-{8-fluoro-2-methylimidazo[1,2-a]pyridin-6-yl}-2-methylindazole-7-carboxamide]	1000 to 10000	< 100	–	–	–	–

Further lines, the molecule ahead of its results:

SMILES	IC50 [1, 6] [nM]	IC50 [2, 9] [nM]	IC50 [2, 10] [nM]	IC50 [3] [nM]	IC50 [4] [nM]	IC50 [5] [nM]	IC50 [1, 12] [nM]	IC50 [2, 13] [nM]	IC50 ([1]; A673 or K562 cells, 24 hours compound treatment, read-out: HTT CJ (IC50, decrease in canonical junction mRNA)) [nM]	IC50 ([2]; A673 or K562 cells, 24 hours compound treatment, RT-qPCR, read-out: MYB CJ (IC50, decrease in canonical junction mRNA)) [nM]	AC50 [1, 7] [nM]	AC50 [2, 8] [nM]	AC50 [1, 11] [nM]	AC50 [2, 14] [nM]	AC50 ([1]; A673 or K562 cells, 24 hours compound treatment, read-out: HTT AJ (AC50, increase in alternative junction mRNA)) [nM]	AC50 ([2]; A673 or K562 cells, 24 hours compound treatment, RT-qPCR, read-out: MYB AJ (AC50, increase in alternative junction mRNA)) [nM]
CCn1cc2c(N3CCN4C(=O)OCC4C3)ccc(C(=O)Nc3cc(F)c4nc(C)cn4c3)c2n1 (centres unmarked) [Compound 415, 2-ethyl-N-{8-fluoro-2-methylimidazo[1,2-a]pyridin-6-yl}-4-{3-oxo-tetrahydro-1H-[1,3]oxazolo[3,4-a]pyrazin-7-yl}indazole-7-carboxamide]	100 to 1000	100 to 1000	100 to 1000	100 to 1000	100 to 1000	100 to 1000	–	–	–	–	100 to 1000	100 to 1000	–	–	–	–
Cc1cn2cc(NC(=O)c3ccc(N4CCNCC4)c4cn(Cc5ccncc5)nc34)cc(F)c2n1 [Compound 313, N-{8-fluoro-2-methylimidazo[1,2-a]pyridin-6-yl}-4-(piperazin-1-yl)-2-(pyridin-4-ylmethyl)indazole-7-carboxamide]	> 10000	1000 to 10000	1000 to 10000	1000 to 10000	> 10000	100 to 1000	–	–	–	–	> 10000	1000 to 10000	–	–	–	–
CCC1CN(c2ccc(C(=O)Nc3cc(F)c4nc(C)cn4c3)c3nn(C)cc23)CCN1 (centres unmarked) [Compound 239]	100 to 1000	< 100	< 100	1000 to 10000	100 to 1000	< 100	–	–	–	–	100 to 1000	100 to 1000	–	–	–	–
Cc1cn2cc(NC(=O)c3ccc(N4CCNCC4)c4cn(CC5(O)CC5)nc34)cc(F)c2n1 [Compound 358, N-{8-fluoro-2-methylimidazo[1,2-a]pyridin-6-yl}-2-[(1-hydroxycyclopropyl)methyl]-4-(piperazin-1-yl)indazole-7-carboxamide]	1000 to 10000	100 to 1000	100 to 1000	> 10000	1000 to 10000	< 100	–	–	–	–	> 10000	100 to 1000	–	–	–	–
Cc1cn2cc(NC(=O)c3ccc(N4CCNCC4)c4cn(C(C)C)nc34)cc(F)c2n1 [Compound 290, N-{8-fluoro-2-methylimidazo[1,2-a]pyridin-6-yl}-2-isopropyl-4-(piperazin-1-yl)indazole-7-carboxamide]	> 10000	100 to 1000	100 to 1000	> 10000	> 10000	< 100	–	–	–	–	> 10000	100 to 1000	–	–	–	–
Cc1cn2cc(NC(=O)c3ccc(N4CCNCC4)c4cn(C5CC(O)C5)nc34)cc(F)c2n1 (centres unmarked) [Compound 355, N-{8-fluoro-2-methylimidazo[1,2-a]pyridin-6-yl}-2-(3-hydroxycyclobutyl)-4-(piperazin-1-yl)indazole-7-carboxamide]	> 10000	< 100	< 100	> 10000	> 10000	< 100	–	–	–	–	1000 to 10000	< 100	–	–	–	–
Cc1cn2cc(NC(=O)c3ccc(N4CCC(NC(C)(C)C)CC4)c4cn(C)nc34)cc(F)c2n1 [Compound 259]	1000 to 10000	100 to 1000	100 to 1000	1000 to 10000	1000 to 10000	< 100	–	–	–	–	1000 to 10000	1000 to 10000	–	–	–	–
Cc1cn2cc(NC(=O)c3ccc(N4CCNCC4)c4cn(CCCl)nc34)cc(F)c2n1 [Compound 337, 2-(2-chloroethyl)-N-{8-fluoro-2-methylimidazo[1,2-a]pyridin-6-yl}-4-(piperazin-1-yl)indazole-7-carboxamide]	1000 to 10000	100 to 1000	100 to 1000	> 10000	1000 to 10000	< 100	–	–	–	–	1000 to 10000	100 to 1000	–	–	–	–
CNc1cc(N2CCNCC2)c2cn(C)nc2c1C(=O)Nc1cc(F)c2nc(C)cn2c1 [Compound 362, N-{8-fluoro-2-methylimidazo[1,2-a]pyridin-6-yl}-2-methyl-6-(methylamino)-4-(piperazin-1-yl) indazole-7-carboxamide]	> 10000	1000 to 10000	1000 to 10000	> 10000	> 10000	100 to 1000	–	–	–	–	> 10000	1000 to 10000	–	–	–	–
CN[C@@H]1CCN(c2ccc(C(=O)Nc3cn4cc(C)nc4c(OC)n3)c3nn(C)cc23)C1 [Compound 441]	1000 to 10000	< 100	< 100	> 10000	1000 to 10000	< 100	–	–	–	–	1000 to 10000	< 100	–	–	–	–
Cc1cn2cc(NC(=O)c3ccc(N4CCN(C)C(C)C4)c4cn(C)nc34)cc(F)c2n1 (centres unmarked) [Compound 229]	100 to 1000	< 100	< 100	1000 to 10000	100 to 1000	< 100	–	–	–	–	100 to 1000	< 100	–	–	–	–
CCN1CCC(c2ccc(C(=O)Nc3cc(F)c4nc(C)cn4c3)c3nn(C)cc23)CC1 [Compound 210]	100 to 1000	< 100	< 100	1000 to 10000	100 to 1000	< 100	–	–	–	–	100 to 1000	< 100	–	–	–	–
